Our source for the EC50 values is patent US9346809B2 (LEO PHARMA A/S, priority 2009, dated 2016).

Structures are written as SMILES. Read-outs that look alike come from different tables or passages of the source.

Common to all, as to format: biochemical
In test [1] the target is T1, JAK1 (aa 850-1154, catalytic domain, GST-tag) (Homo sapiens, UniProt P23458).
T1 construct: JAK1 (aa 850-1154) and TYK2 (aa 871-1187) are expressed with an N-terminally fused GST-tag; GST (N); purchased Carna Biosciences, Inc; host or cells: baculovirus expression system
T1 sequence (P23458 850-1154): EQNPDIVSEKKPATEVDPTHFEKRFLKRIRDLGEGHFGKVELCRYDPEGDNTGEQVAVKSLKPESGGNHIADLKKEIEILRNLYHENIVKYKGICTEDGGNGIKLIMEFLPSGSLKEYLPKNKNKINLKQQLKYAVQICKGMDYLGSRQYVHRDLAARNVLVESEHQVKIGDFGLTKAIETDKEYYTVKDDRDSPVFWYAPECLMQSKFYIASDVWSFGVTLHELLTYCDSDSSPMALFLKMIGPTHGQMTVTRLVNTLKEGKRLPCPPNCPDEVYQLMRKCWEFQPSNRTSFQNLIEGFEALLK
The test can be described thus: JAK kinase assay (HTRF, phosphorylation of TK substrate-biotin), JAK1. The conditions noted are these: ATP at Km (7 μM). In short, it runs like this: (§1)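 Catalytic-domain kinases phosphorylated 1 μM biotin-TK substrate at ATP Km (JAK1 7 μM, JAK2 4 μM, JAK3 2 μM, TYK2 13 μM) in Hepes pH 7.0 with DTT and MgCl2, for 20-30 min at RT; JAK1 and TYK2 also had 50 nM SEB. Detection was by HTRF (streptavidin-XL665/Cryptate antibody) overnight, giving EC50.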
For orientation: TR-FRET usually uses a lanthanide donor and a delayed reading to cut background.

Test [2] has as its target T2, JAK2 (catalytic domain, His-tag) (Homo sapiens, UniProt O60674).
T2 construct: All four purified enzymes contain only the catalytic domain; His (N); purchased Carna Biosciences, Inc; host or cells: baculovirus expression system
Description: JAK kinase assay (HTRF, phosphorylation of TK substrate-biotin), JAK2. The conditions noted are these: ATP at Km (4 μM). In short, it runs like this: as §1

Test [3] addresses T3, JAK3 (catalytic domain, His-tag) (Homo sapiens, UniProt P52333).
T3 construct: All four purified enzymes contain only the catalytic domain; His (N); purchased Carna Biosciences, Inc; host or cells: baculovirus expression system
The test can be described thus: JAK kinase assay (HTRF, phosphorylation of TK substrate-biotin), JAK3. The conditions noted are these: ATP at Km (2 μM). In a few lines: as §1

For test [4], the target named is T4, TYK2 (aa 871-1187, catalytic domain, GST-tag) (Homo sapiens, UniProt P29597).
T4 construct: JAK1 (aa 850-1154) and TYK2 (aa 871-1187) are expressed with an N-terminally fused GST-tag; GST (N); purchased Carna Biosciences, Inc; host or cells: baculovirus expression system
T4 sequence (P29597 871-1187): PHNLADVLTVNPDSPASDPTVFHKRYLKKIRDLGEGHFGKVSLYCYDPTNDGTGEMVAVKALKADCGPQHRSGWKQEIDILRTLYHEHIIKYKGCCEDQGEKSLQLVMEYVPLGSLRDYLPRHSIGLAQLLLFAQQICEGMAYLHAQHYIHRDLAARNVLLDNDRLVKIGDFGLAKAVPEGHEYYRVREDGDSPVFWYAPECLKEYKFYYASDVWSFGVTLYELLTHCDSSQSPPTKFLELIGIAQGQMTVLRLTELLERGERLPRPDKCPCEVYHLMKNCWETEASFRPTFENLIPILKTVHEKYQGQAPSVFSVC
Description: JAK kinase assay (HTRF, phosphorylation of TK substrate-biotin), TYK2. The conditions noted are these: ATP at Km (13 μM). In a few lines:
as §1

[5] abbreviates: HTRF assay, read-out: JAK1 kinase inhibitory activity (EC50 indicator).
Setting [6] is: HTRF assay, read-out: JAK2 kinase inhibitory activity (EC50 indicator).
Where [7] appears, read: HTRF assay, read-out: JAK3 kinase inhibitory activity (EC50 indicator).
[8] abbreviates: HTRF assay, read-out: TYK2 kinase inhibitory activity (EC50 indicator).
[9] abbreviates: read-out: JAK1 kinase inhibitory activity (EC50 indicator).
Setting [10] is: read-out: JAK2 kinase inhibitory activity (EC50 indicator).
The mark [11] stands for this setting: read-out: JAK3 kinase inhibitory activity (EC50 indicator).
[12] abbreviates: read-out: TYK2 kinase inhibitory activity (EC50 indicator).
Where [13] appears, read: HTRF assay, read-out: JAK1 kinase inhibitory activity (EC50).
The mark [14] stands for this setting: HTRF assay, read-out: JAK2 kinase inhibitory activity (EC50).
Setting [15] is: HTRF assay, read-out: JAK3 kinase inhibitory activity (EC50).
Setting [16] is: HTRF assay, read-out: TYK2 kinase inhibitory activity (EC50).

T3 sequence (P52333 822-1111 limits assumed): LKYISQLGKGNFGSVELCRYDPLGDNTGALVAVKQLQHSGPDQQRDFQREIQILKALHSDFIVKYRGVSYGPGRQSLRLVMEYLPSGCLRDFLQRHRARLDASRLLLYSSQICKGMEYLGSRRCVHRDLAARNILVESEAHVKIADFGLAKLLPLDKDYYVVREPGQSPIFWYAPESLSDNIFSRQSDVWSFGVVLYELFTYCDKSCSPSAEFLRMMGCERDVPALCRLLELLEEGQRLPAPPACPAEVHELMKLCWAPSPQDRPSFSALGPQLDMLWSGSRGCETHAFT
T2 sequence (O60674 849-1124 limits assumed): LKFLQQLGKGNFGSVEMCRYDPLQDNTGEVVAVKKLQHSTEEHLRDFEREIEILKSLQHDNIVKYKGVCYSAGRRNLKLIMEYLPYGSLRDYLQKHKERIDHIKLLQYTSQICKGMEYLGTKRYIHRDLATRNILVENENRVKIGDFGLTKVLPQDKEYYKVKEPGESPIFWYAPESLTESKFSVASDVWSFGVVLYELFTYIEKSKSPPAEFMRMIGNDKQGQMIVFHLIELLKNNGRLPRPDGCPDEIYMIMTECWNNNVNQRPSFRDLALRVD

The EC50 is the concentration at which the effect is half-maximal. On to `N#Cc1ccccc1C(=O)N1CCN(c2ccnc3[nH]ccc23)CC12CC2` [Example 235, 2-[7-(1H-Pyrrolo[2,3-b]pyridin-4-yl)-4,7-diaza-spiro[2.5]octane-4-carbonyl]-benzonitrile], for which the EC50 in test [1] (setting [5]) is 100 to 500 nM; in test [2] (setting [6]) it was less than 100 nM; in test [3] (setting [7]), greater than 500 nM; in test [4] (setting [8]), greater than 500 nM.

As for `N#Cc1cccc(CC(=O)N2CCN(c3nc(N)nc4[nH]ccc34)CC23CC3)c1` [Example 311, 3-{2-[7-(2-Amino-7H-pyrrolo[2,3-d]pyrimidin-4-yl)-4,7-diaza-spiro[2.5]oct-4-yl]-2-oxo-ethyl}-benzonitrile], the EC50 in test [1] (setting [5]) was 100 to 500 nM; in test [2] (setting [6]), 100 to 500 nM; in test [3] (setting [7]), 100 to 500 nM; in test [4] (setting [8]), greater than 500 nM.

With `COc1ncccc1C(=O)N1CCN(c2ncnc3[nH]ccc23)CC12CC2` [Example 216, (2-Methoxy-pyridin-3-yl)-[7-(7H-pyrrolo[2,3-d]pyrimidin-4-yl)-4,7-diaza-spiro[2.5]oct-4-yl]-methanone], the EC50 in test [1] (setting [5]) was 100 to 500 nM; in test [2] (setting [6]) it was 100 to 500 nM; in test [3] (setting [7]), greater than 500 nM; in test [4] (setting [8]) it was greater than 500 nM.

For the molecule `O=C(c1cnccn1)N1CCN(c2ncnc3[nH]cc(Cl)c23)CC12CC2` [Example 314, [7-(5-Chloro-7H-pyrrolo[2,3-d]pyrimidin-4-yl)-4,7-diaza-spiro[2.5]oct-4-yl]-pyrazin-2-yl-methanone], the EC50 in test [1] (setting [5]) was greater than 500 nM; in test [2] (setting [6]) it was 100 to 500 nM; in test [3] (setting [7]), greater than 500 nM; in test [4] (setting [8]) it was greater than 500 nM.

`Cc1c[nH]c2ncnc(N3CCN(C(=O)Cc4ccc(F)cc4)C4(CC4)C3)c12` [Example 330, 2-(4-Fluoro-phenyl)-1-[7-(5-methyl-7H-pyrrolo[2,3-d]pyrimidin-4-yl)-4,7-diaza-spiro[2.5]oct-4-yl]-ethanone]: the EC50 in test [1] (setting [5]) was 100 to 500 nM; in test [2] (setting [6]) it was 100 to 500 nM; in test [3] (setting [7]) it was 100 to 500 nM; in test [4] (setting [8]) it was greater than 500 nM.

Turning to `O=C(c1cccc(OC(F)(F)F)c1)N1[C@@H]2CC[C@@H]1CN(c1ncnc3[nH]ccc13)C2` [Example 244, [3-(7H-Pyrrolo[2,3-d]pyrimidin-4-yl)-3,8-diaza-bicyclo[3.2.1]oct-8-yl]-(3-trifluoromethoxy-phenyl)-methanone], the EC50 was less than 100 nM in test [1] (setting [5]), less than 100 nM in test [2] (setting [6]), less than 100 nM in test [3] (setting [7]) and greater than 500 nM in test [4] (setting [8]).

Turning to `CS(=O)(=O)c1ccc2[nH]c(C(=O)N3C4CCC3CN(c3ncnc5[nH]ccc35)C4)cc2c1` [Example 130, (5-Methanesulfonyl-1H-indol-2-yl)-[3-(7H-pyrrolo[2,3-d]pyrimidin-4-yl)-3,8-diaza-bicyclo[3.2.1]oct-8-yl]-methanone], the EC50 in test [1] (setting [9]) is less than 100 nM; in test [2] (setting [10]), less than 100 nM; in test [3] (setting [11]), less than 100 nM; in test [4] (setting [12]), 100 to 500 nM.

As to `O=C(C1CCc2ccccc21)N1CCN(c2ncnc3[nH]ccc23)CC12CC2` (stereo not shown) [Example 413, Indan-1-yl-[7-(7H-pyrrolo[2,3-d]pyrimidin-4-yl)-4,7-diaza-spiro[2.5]oct-4-yl]-methanone], the EC50 is 100 to 500 nM in test [1] (setting [5]), less than 100 nM in test [2] (setting [6]), 100 to 500 nM in test [3] (setting [7]) and greater than 500 nM in test [4] (setting [8]).

`CC(=O)NCC(=O)N1[C@@H]2CC[C@@H]1CN(c1ncnc3[nH]ccc13)C2` [Example 34, N-{2-Oxo-2-[3-(7H-pyrrolo[2,3-d]pyrimidin-4-yl)-3,8-diaza-bicyclo[3.2.1]oct-8-yl]-ethyl}acetamide]: the EC50 in test [1] (setting [9]), in test [2] (setting [10]), in test [3] (setting [11]) and in test [4] (setting [12]) was greater than 500 nM in each case.

Take `CC(=O)OCC(=O)Nc1nc(N2CCN(C(=O)Cc3ccc(C#N)cc3)C3(CC3)C2)c2cc[nH]c2n1` [Example 100, Acetic acid (4-{4-[2-(4-cyano-phenyl)-acetyl]-4,7-diaza-spiro[2.5]oct-7-yl}-7H-pyrrolo[2,3-d]pyrimidin-2-ylcarbamoyl)-methyl ester]: the half-maximal effective concentration (EC50) in test [1] (setting [9]) is less than 100 nM; in test [2] (setting [10]), less than 100 nM; in test [3] (setting [11]) it was less than 100 nM; in test [4] (setting [12]), 100 to 500 nM.

With `Cc1csc(C(=O)N2CCN(c3ncnc4[nH]ccc34)CC23CC3)c1` [Example 62, (4-Methyl-thiophen-2-yl)-[7-(7H-pyrrolo[2,3-d]pyrimidin-4-yl)-4,7-diaza-spiro[2.5]oct-4-yl]-methanone], the EC50 in test [1] (setting [9]), in test [2] (setting [10]), in test [3] (setting [11]) and in test [4] (setting [12]) was less than 100 nM in each case.

Take `Cc1ccsc1C(=O)N1[C@@H]2CC[C@@H]1CN(c1ncnc3[nH]ccc13)C2` [Example 243, (3-Methyl-thiophen-2-yl)-[3-(7H-pyrrolo[2,3-d]pyrimidin-4-yl)-3,8-diaza-bicyclo[3.2.1]oct-8-yl]-methanone]: the EC50 in test [1] (setting [5]) is 100 to 500 nM; in test [2] (setting [6]) it was less than 100 nM; in test [3] (setting [7]) it was 100 to 500 nM; in test [4] (setting [8]) it was greater than 500 nM.

For `COC(=O)c1cc2c(N3CCN(C(=O)Cc4cccc(CC#N)c4)C4(CC4)C3)ncnc2[nH]1` [Example 121, 4-{4-[2-(3-Cyanomethyl-phenyl)-acetyl]-4,7-diaza-spiro[2.5]oct-7-yl}-7H-pyrrolo[2,3-d]pyrimidine-6-carboxylic acid methyl ester], the EC50 in test [1] (setting [9]), in test [2] (setting [10]), in test [3] (setting [11]) and in test [4] (setting [12]) was greater than 500 nM each time.

For `O=C(Oc1ccc(Cl)cc1)N1CCN(c2ncnc3[nH]ccc23)CC12CC2` [Example 446, 7-(7H-Pyrrolo[2,3-d]pyrimidin-4-yl)-4,7-diaza-spiro[2.5]octane-4-carboxylic acid 4-chloro-phenyl ester], the EC50 in test [1] (setting [13]) was less than 100 nM; in test [2] (setting [14]), less than 100 nM; in test [3] (setting [15]), 100 to 500 nM; in test [4] (setting [16]), greater than 500 nM.

`COc1cnc2[nH]ccc2c1N1CCN(C(=O)c2ccc(C#N)cc2)C2(CC2)C1` [Example 286, 4-[7-(5-Methoxy-1H-pyrrolo[2,3-b]pyridin-4-yl)-4,7-diaza-spiro[2.5]octane-4-carbonyl]-benzonitrile]: the EC50 in test [1] (setting [5]), in test [2] (setting [6]), in test [3] (setting [7]) and in test [4] (setting [8]) was greater than 500 nM each time.

On to `NS(=O)(=O)c1ccc(NCC(=O)N2CCN(c3ncnc4[nH]ccc34)CC23CC3)cc1` [Example 454, 4-{2-Oxo-2-[7-(7H-pyrrolo[2,3-d]pyrimidin-4-yl)-4,7-diaza-spiro[2.5]oct-4-yl]-ethylamino}-benzenesulfonamide], for which the EC50 in test [1] (setting [13]) was less than 100 nM; in test [2] (setting [14]) it was less than 100 nM; in test [3] (setting [15]), 100 to 500 nM; in test [4] (setting [16]), 100 to 500 nM.

For `N#CCCC(=O)N1[C@@H]2CC[C@@H]1CN(c1ncnc3[nH]ccc13)C2` [Example 182, 4-Oxo-4-[3-(7H-pyrrolo[2,3-d]pyrimidin-4-yl)-3,8-diaza-bicyclo[3.2.1]oct-8-yl]-butyronitrile], the EC50 is less than 100 nM in test [1] (setting [9]), less than 100 nM in test [2] (setting [10]), 100 to 500 nM in test [3] (setting [11]) and 100 to 500 nM in test [4] (setting [12]).

`N#Cc1cccc(C(=O)N2CCN(c3ncnc4[nH]cc(Cl)c34)CC23CC3)c1` [Example 316, 3-[7-(5-Chloro-7H-pyrrolo[2,3-d]pyrimidin-4-yl)-4,7-diaza-spiro[2.5]octane-4-carbonyl]-benzonitrile]: the EC50 in test [1] (setting [5]) was greater than 500 nM; in test [2] (setting [6]) it was 100 to 500 nM; in test [3] (setting [7]), 100 to 500 nM; in test [4] (setting [8]) it was greater than 500 nM.

As for `N#Cc1ccc(C(=O)N2[C@@H]3CC[C@@H]2CN(c2ncnc4[nH]ccc24)C3)cc1F` [Example 350, 2-Fluoro-4-[3-(7H-pyrrolo[2,3-d]pyrimidin-4-yl)-3,8-diaza-bicyclo[3.2.1]octane-8-carbonyl]-benzonitrile], the EC50 in test [1] (setting [5]) was less than 100 nM; in test [2] (setting [6]), less than 100 nM; in test [3] (setting [7]) it was less than 100 nM; in test [4] (setting [8]), 100 to 500 nM.
